Measurements taken from the kinase profiling compilation of Christmann-Franck et al. (2016).
Each block holds one molecule with its values, some of them ahead of it.

Tests used:
Experiment in all cases: radiometric filter-binding kinase assay
[1] = biological target: CHEK2 (human) (UniProt O96017)
[2] = biological target: CLK2 (human) (UniProt P49760)
[3] = biological target: DAPK1 (human) (UniProt P53355)
[4] = biological target: DYRK2 (human) (UniProt Q92630)
[5] = biological target: DYRK3 (human) (UniProt O43781)
[6] = biological target: EPHA2 (human) (UniProt P29317)
[7] = biological target: EPHB1 (human) (UniProt P54762)
[8] = biological target: EPHB2 (human) (UniProt P29323)
[9] = biological target: EPHB4 (human) (UniProt P54760)
[10] = biological target: FLT1 (human) (UniProt P17948)
[11] = biological target: GCK (human) (UniProt Q12851)
[12] = biological target: HIPK2 (human) (UniProt Q9H2X6)
[13] = biological target: IKBKE (human) (UniProt Q14164)
[14] = biological target: IRAK4 (human) (UniProt Q9NWZ3)
[15] = biological target: MAP3K7 TAB1 (human) (UniProt Q15750+O43318)
[16] = biological target: MAPK12 (human) (UniProt P53778)
[17] = biological target: MAPK14 (human) (UniProt Q16539)
[18] = biological target: MAPKAPK2 (human) (UniProt P49137)
[19] = biological target: MAPKAPK5 (human) (UniProt Q8IW41)
[20] = biological target: MARK1 (human) (UniProt Q9P0L2)
[21] = biological target: MARK2 (human) (UniProt Q7KZI7)
[22] = biological target: MELK (human) (UniProt Q14680)
[23] = biological target: MYLK (human) (UniProt Q15746)
[24] = biological target: NEK2 (human) (UniProt P51955)
[25] = biological target: PIM1 (human) (UniProt P11309)
[26] = biological target: PIM3 (human) (UniProt Q86V86)
[27] = biological target: PKN2 (human) (UniProt Q16513)
[28] = biological target: PRKCA (human) (UniProt P17252)
[29] = tested on: ROCK2 (rat); conditions: accession and sequence are those of the human protein
[30] = biological target: RPS6KA1 KD1 KD2 (human) (UniProt Q15418)
[31] = tested on: RPS6KB1 (human), P23443 [T412E]
[32] = tested on: SGK1 (human), O00141 [S422D]
[33] = biological target: STK3 (human) (UniProt Q13188)
[34] = biological target: TAOK1 (human) (UniProt Q7L7X3)
[35] = biological target: TTK (human) (UniProt P33981)
Chain of TTK (human) (P33981 whole entry, looked up): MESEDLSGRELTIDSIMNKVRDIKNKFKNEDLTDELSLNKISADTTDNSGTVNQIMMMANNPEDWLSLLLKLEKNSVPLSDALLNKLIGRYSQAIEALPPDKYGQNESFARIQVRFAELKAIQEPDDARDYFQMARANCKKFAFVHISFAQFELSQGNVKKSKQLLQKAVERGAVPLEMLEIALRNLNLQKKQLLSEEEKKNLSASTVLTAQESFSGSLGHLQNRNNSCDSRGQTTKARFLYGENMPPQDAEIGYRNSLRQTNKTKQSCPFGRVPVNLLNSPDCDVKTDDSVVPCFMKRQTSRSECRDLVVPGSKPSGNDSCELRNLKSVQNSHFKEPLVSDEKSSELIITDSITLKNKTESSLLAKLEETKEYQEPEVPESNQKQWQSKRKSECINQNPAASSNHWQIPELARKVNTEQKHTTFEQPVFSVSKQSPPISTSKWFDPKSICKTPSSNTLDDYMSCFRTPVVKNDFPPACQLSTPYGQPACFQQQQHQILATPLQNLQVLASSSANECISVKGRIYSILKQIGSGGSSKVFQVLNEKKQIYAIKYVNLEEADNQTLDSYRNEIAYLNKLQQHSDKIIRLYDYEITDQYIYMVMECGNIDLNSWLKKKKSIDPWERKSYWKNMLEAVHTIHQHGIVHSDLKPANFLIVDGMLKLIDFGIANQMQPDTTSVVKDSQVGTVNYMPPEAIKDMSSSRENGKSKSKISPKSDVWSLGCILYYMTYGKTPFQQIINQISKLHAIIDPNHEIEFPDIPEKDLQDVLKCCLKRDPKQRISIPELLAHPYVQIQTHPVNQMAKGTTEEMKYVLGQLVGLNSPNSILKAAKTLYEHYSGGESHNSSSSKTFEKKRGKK

Chain of HIPK2 (human) (Q9H2X6 whole entry, looked up): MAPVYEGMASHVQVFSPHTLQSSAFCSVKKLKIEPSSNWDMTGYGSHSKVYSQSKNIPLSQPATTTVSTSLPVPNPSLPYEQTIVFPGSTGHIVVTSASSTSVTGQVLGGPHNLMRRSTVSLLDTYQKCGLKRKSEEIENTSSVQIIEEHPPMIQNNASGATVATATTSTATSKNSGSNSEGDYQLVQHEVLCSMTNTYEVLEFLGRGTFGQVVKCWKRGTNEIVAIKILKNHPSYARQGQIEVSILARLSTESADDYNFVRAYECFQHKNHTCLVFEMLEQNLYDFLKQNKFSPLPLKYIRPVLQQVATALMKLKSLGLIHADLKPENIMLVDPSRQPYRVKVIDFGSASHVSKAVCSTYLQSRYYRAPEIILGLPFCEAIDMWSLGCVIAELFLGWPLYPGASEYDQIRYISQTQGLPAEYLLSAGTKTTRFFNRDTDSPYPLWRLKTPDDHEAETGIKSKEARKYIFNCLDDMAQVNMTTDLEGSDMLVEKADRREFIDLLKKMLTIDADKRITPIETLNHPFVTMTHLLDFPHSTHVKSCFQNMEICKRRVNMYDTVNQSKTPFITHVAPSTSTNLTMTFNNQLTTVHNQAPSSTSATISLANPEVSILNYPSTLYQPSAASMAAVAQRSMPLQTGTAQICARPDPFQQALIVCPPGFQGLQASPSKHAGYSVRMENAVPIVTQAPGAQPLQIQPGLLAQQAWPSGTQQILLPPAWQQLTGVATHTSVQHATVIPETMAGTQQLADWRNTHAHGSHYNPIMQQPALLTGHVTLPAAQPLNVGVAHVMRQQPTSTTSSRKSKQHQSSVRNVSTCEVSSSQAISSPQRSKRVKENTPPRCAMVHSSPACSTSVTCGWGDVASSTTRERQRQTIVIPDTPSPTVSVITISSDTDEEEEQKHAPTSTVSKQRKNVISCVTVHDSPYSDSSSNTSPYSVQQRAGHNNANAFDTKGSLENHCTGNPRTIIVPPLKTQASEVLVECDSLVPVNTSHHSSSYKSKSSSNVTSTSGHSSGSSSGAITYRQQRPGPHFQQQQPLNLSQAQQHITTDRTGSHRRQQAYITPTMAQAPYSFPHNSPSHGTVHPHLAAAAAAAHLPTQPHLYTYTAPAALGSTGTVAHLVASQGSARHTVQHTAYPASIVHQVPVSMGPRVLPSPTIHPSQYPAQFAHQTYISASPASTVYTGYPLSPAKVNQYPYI
Chain of FLT1 (human) (P17948 whole entry, looked up): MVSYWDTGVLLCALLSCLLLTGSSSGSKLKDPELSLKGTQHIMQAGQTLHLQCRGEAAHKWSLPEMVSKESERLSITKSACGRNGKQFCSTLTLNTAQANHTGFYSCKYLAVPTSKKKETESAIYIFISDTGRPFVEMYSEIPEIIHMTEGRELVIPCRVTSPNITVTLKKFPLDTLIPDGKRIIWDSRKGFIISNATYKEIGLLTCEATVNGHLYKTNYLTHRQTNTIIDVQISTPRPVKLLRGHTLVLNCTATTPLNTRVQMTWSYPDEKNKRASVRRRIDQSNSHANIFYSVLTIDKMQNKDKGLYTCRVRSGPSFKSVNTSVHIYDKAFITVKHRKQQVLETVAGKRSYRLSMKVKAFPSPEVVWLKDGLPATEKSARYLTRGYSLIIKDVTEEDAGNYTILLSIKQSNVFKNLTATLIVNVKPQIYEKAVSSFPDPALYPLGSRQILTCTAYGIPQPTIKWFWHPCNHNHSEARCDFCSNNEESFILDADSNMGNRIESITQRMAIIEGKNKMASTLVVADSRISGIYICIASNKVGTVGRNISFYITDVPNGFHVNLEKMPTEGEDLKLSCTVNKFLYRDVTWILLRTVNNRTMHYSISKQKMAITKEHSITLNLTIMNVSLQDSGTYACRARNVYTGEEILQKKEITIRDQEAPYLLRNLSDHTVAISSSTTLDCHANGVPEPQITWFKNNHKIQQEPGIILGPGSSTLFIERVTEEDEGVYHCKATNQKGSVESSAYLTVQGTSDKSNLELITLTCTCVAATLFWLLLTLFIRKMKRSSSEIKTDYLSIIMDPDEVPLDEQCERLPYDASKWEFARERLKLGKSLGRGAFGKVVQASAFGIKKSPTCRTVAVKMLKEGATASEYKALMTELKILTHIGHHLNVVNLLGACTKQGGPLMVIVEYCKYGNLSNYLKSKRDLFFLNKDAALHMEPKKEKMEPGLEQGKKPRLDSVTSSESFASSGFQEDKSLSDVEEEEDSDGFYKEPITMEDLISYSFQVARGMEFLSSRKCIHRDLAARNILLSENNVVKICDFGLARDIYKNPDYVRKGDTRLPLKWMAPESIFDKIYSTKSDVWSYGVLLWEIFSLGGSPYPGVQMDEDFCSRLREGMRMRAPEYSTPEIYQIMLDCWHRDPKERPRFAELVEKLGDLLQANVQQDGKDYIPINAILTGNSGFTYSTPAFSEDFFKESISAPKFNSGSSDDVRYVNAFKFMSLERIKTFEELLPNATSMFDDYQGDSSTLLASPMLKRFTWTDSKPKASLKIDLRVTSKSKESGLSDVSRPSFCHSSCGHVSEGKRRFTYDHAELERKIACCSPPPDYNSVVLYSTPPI
Chain of RPS6KB1 (human), P23443 [T412E] (P23443 whole entry T412E, looked up): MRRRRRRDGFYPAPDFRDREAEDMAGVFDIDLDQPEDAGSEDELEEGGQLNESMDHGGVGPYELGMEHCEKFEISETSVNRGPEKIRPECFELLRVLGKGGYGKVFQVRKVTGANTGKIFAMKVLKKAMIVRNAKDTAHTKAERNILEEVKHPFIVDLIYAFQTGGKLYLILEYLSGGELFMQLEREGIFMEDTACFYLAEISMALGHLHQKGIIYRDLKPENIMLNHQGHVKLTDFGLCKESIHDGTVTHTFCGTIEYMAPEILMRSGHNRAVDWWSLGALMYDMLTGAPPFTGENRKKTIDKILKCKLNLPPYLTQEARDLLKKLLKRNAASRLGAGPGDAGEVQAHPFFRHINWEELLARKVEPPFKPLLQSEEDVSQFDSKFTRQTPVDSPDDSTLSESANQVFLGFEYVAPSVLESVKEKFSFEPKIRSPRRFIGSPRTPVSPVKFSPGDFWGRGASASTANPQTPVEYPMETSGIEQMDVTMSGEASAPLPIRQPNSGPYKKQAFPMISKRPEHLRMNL
Chain of CHEK2 (human) (O96017 whole entry, looked up): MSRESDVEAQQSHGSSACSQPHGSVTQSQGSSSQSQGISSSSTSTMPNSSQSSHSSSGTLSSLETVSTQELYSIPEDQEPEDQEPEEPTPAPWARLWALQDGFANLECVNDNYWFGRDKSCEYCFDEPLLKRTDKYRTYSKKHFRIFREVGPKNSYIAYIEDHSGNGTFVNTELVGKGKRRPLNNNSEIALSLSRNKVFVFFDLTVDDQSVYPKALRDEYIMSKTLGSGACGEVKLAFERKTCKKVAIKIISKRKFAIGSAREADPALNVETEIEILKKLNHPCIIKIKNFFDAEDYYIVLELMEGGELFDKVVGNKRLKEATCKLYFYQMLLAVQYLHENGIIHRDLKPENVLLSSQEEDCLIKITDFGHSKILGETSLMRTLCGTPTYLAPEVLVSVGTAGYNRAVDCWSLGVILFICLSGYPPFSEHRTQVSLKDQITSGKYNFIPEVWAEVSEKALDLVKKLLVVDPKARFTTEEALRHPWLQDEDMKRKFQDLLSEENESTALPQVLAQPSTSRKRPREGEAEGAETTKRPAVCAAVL
Chain of DYRK2 (human) (Q92630 whole entry, looked up): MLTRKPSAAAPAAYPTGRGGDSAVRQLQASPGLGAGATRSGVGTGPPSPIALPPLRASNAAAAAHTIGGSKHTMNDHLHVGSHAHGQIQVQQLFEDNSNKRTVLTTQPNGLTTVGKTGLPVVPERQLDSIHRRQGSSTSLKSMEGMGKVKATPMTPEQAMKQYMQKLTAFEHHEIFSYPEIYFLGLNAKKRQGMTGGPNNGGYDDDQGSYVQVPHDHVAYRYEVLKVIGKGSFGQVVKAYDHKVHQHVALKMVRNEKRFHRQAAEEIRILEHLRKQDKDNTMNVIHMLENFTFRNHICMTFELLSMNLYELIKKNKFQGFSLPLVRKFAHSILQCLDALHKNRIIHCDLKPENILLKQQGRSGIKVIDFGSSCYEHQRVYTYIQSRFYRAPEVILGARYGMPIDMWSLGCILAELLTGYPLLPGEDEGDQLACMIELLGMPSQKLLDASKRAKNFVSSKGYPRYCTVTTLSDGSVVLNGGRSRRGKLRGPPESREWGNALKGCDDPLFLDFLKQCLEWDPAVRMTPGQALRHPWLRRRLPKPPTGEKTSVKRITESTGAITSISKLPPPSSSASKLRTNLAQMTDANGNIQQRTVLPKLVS

- residual activity ([1]; compound 1.0 µM): 18%
- residual activity ([1]; compound 10.0 µM): 3%
- residual activity ([2]; compound 1.0 µM): 36%
- residual activity ([2]; compound 10.0 µM): 5%
- residual activity ([3]; compound 1.0 µM): 53%
- residual activity ([3]; compound 10.0 µM): 11%
- residual activity ([4]; compound 1.0 µM): 40%
- residual activity ([4]; compound 10.0 µM): 9%
- residual activity ([5]; compound 1.0 µM): 88%
- residual activity ([5]; compound 10.0 µM): 51%
- residual activity ([6]; compound 1.0 µM): 81%
- residual activity ([6]; compound 10.0 µM): 93%
- residual activity ([7]; compound 1.0 µM): 93%
- residual activity ([7]; compound 10.0 µM): 91%
- residual activity ([8]; compound 1.0 µM): 92%
- residual activity ([8]; compound 10.0 µM): 97%
- residual activity ([9]; compound 1.0 µM): 94%
- residual activity ([9]; compound 10.0 µM): 94%
- residual activity ([10]; compound 1.0 µM): 55%
- residual activity ([10]; compound 10.0 µM): 14%
- residual activity ([11]; compound 1.0 µM): 73%
- residual activity ([11]; compound 10.0 µM): 25%
- residual activity ([12]; compound 1.0 µM): 70%
- residual activity ([12]; compound 10.0 µM): 28%
- residual activity ([13]; compound 1.0 µM): 94%
- residual activity ([13]; compound 10.0 µM): 55%
- residual activity ([14]; compound 1.0 µM): 90%
- residual activity ([14]; compound 10.0 µM): 93%
- residual activity ([15]; compound 1.0 µM): 11%
- residual activity ([15]; compound 10.0 µM): 2%
- residual activity ([16]; compound 1.0 µM): 98%
- residual activity ([16]; compound 10.0 µM): 96%
- residual activity ([17]; compound 1.0 µM): 84%
- residual activity ([17]; compound 10.0 µM): 119%
- residual activity ([18]; compound 1.0 µM): 102%
- residual activity ([18]; compound 10.0 µM): 97%
- residual activity ([19]; compound 1.0 µM): 77%
- residual activity ([19]; compound 10.0 µM): 49%
- residual activity ([20]; compound 1.0 µM): 88%
- residual activity ([20]; compound 10.0 µM): 85%
- residual activity ([21]; compound 1.0 µM): 100%
- residual activity ([21]; compound 10.0 µM): 81%
- residual activity ([22]; compound 1.0 µM): 91%
- residual activity ([22]; compound 10.0 µM): 39%
- residual activity ([23]; compound 1.0 µM): 44%
- residual activity ([23]; compound 10.0 µM): 8%
- residual activity ([24]; compound 1.0 µM): 97%
- residual activity ([24]; compound 10.0 µM): 72%
- residual activity ([25]; compound 1.0 µM): 101%
- residual activity ([25]; compound 10.0 µM): 94%
- residual activity ([26]; compound 1.0 µM): 101%
- residual activity ([26]; compound 10.0 µM): 78%
- residual activity ([27]; compound 1.0 µM): 84%
- residual activity ([27]; compound 10.0 µM): 82%
- residual activity ([28]; compound 1.0 µM): 96%
- residual activity ([28]; compound 10.0 µM): 101%
- residual activity ([29]; compound 1.0 µM): 95%
- residual activity ([29]; compound 10.0 µM): 78%
- residual activity ([30]; compound 1.0 µM): 54%
- residual activity ([30]; compound 10.0 µM): 14%
- residual activity ([31]; compound 1.0 µM): 89%
- residual activity ([31]; compound 10.0 µM): 68%
- residual activity ([32]; compound 1.0 µM): 88%
- residual activity ([32]; compound 10.0 µM): 70%
- residual activity ([33]; compound 1.0 µM): 111%
- residual activity ([33]; compound 10.0 µM): 92%
- residual activity ([34]; compound 1.0 µM): 99%
- residual activity ([34]; compound 10.0 µM): 80%
- residual activity ([35]; compound 1.0 µM): 56%
- residual activity ([35]; compound 10.0 µM): 31%
SMILES: COc1cc(C(=O)N2CCOCC2)c(F)cc1Nc1ncc(C(F)(F)F)c(NC2CC2)n1

- residual activity ([1]; compound 0.1 µM): 85%
- residual activity ([1]; compound 1.0 µM): 93%
- residual activity ([1]; compound 10.0 µM): 54%
- residual activity ([2]; compound 1.0 µM): 60%
- residual activity ([2]; compound 10.0 µM): 18%
- residual activity ([3]; compound 1.0 µM): 68%
- residual activity ([3]; compound 10.0 µM): 25%
- residual activity ([4]; compound 0.1 µM): 98%
- residual activity ([4]; compound 1.0 µM): 94%
- residual activity ([4]; compound 10.0 µM): 94%
- residual activity ([5]; compound 0.1 µM): 82%
- residual activity ([5]; compound 1.0 µM): 91%
- residual activity ([5]; compound 10.0 µM): 64%
- residual activity ([6]; compound 0.1 µM): 97%
- residual activity ([6]; compound 1.0 µM): 99%
- residual activity ([6]; compound 10.0 µM): 84%
- residual activity ([7]; compound 1.0 µM): 102%
- residual activity ([7]; compound 10.0 µM): 88%
- residual activity ([8]; compound 1.0 µM): 82%
- residual activity ([8]; compound 10.0 µM): 84%
- residual activity ([9]; compound 1.0 µM): 96%
- residual activity ([9]; compound 10.0 µM): 103%
- residual activity ([10]; compound 0.1 µM): 90%
- residual activity ([10]; compound 1.0 µM): 89%
- residual activity ([10]; compound 10.0 µM): 53%
- residual activity ([11]; compound 1.0 µM): 102%
- residual activity ([11]; compound 10.0 µM): 99%
- residual activity ([12]; compound 1.0 µM): 86%
- residual activity ([12]; compound 10.0 µM): 38%
- residual activity ([13]; compound 0.1 µM): 90%
- residual activity ([13]; compound 1.0 µM): 102%
- residual activity ([13]; compound 10.0 µM): 83%
- residual activity ([14]; compound 1.0 µM): 63%
- residual activity ([14]; compound 10.0 µM): 24%
- residual activity ([15]; compound 1.0 µM): 91%
- residual activity ([15]; compound 10.0 µM): 86%
- residual activity ([16]; compound 0.1 µM): 84%
- residual activity ([16]; compound 1.0 µM): 95%
- residual activity ([16]; compound 10.0 µM): 92%
- residual activity ([17]; compound 0.1 µM): 87%
- residual activity ([17]; compound 1.0 µM): 91%
- residual activity ([17]; compound 10.0 µM): 99%
- residual activity ([18]; compound 0.1 µM): 90%
- residual activity ([18]; compound 1.0 µM): 92%
- residual activity ([18]; compound 10.0 µM): 59%
- residual activity ([19]; compound 0.1 µM): 101%
- residual activity ([19]; compound 1.0 µM): 91%
- residual activity ([19]; compound 10.0 µM): 105%
- residual activity ([20]; compound 1.0 µM): 85%
- residual activity ([20]; compound 10.0 µM): 74%
- residual activity ([21]; compound 1.0 µM): 106%
- residual activity ([21]; compound 10.0 µM): 83%
- residual activity ([22]; compound 0.1 µM): 97%
- residual activity ([22]; compound 1.0 µM): 74%
- residual activity ([22]; compound 10.0 µM): 52%
- residual activity ([23]; compound 0.1 µM): 82%
- residual activity ([23]; compound 1.0 µM): 27%
- residual activity ([23]; compound 10.0 µM): 10%
- residual activity ([24]; compound 0.1 µM): 91%
- residual activity ([24]; compound 1.0 µM): 95%
- residual activity ([24]; compound 10.0 µM): 87%
- residual activity ([25]; compound 0.1 µM): 40%
- residual activity ([25]; compound 1.0 µM): 18%
- residual activity ([25]; compound 10.0 µM): 10%
- residual activity ([26]; compound 0.1 µM): 95%
- residual activity ([26]; compound 1.0 µM): 55%
- residual activity ([26]; compound 10.0 µM): 24%
- residual activity ([27]; compound 0.1 µM): 90%
- residual activity ([27]; compound 1.0 µM): 103%
- residual activity ([27]; compound 10.0 µM): 104%
- residual activity ([28]; compound 0.1 µM): 114%
- residual activity ([28]; compound 1.0 µM): 106%
- residual activity ([28]; compound 10.0 µM): 80%
- residual activity ([29]; compound 0.1 µM): 100%
- residual activity ([29]; compound 1.0 µM): 89%
- residual activity ([29]; compound 10.0 µM): 79%
- residual activity ([30]; compound 0.1 µM): 88%
- residual activity ([30]; compound 1.0 µM): 66%
- residual activity ([30]; compound 10.0 µM): 34%
- residual activity ([31]; compound 0.1 µM): 86%
- residual activity ([31]; compound 1.0 µM): 111%
- residual activity ([31]; compound 10.0 µM): 61%
- residual activity ([32]; compound 0.1 µM): 89%
- residual activity ([32]; compound 1.0 µM): 94%
- residual activity ([32]; compound 10.0 µM): 84%
- residual activity ([33]; compound 0.1 µM): 85%
- residual activity ([33]; compound 1.0 µM): 96%
- residual activity ([33]; compound 10.0 µM): 92%
- residual activity ([34]; compound 1.0 µM): 86%
- residual activity ([34]; compound 10.0 µM): 97%
- residual activity ([35]; compound 1.0 µM): 85%
- residual activity ([35]; compound 10.0 µM): 68%
SMILES: O=C(Nc1ccccc1-c1cn2c(CN3CCNCC3)csc2n1)c1cnc2ccccc2n1
